Measurements reported in PMC9090415, “Discovery of small molecule inhibitors of Plasmodium falciparum apicoplast DNA polymerase” (Journal of Enzyme Inhibition and Medicinal Chemistry, 2022).

Biological target: P. falciparum apicoplast DNA polymerase (Pf-apPOL) (Plasmodium falciparum, UniProt Q8ILY1)
Assay: Fluorescence-based high-throughput DNA polymerase assay (molecular beacon), primary screen and dose-response
Format: biochemical
Experimental: The HT assay employs a molecular beacon, a stem-loop DNA template with a Cy3 dye and the Black Hole Quencher on the 3′ and 5′ ends of the DNA, respectively. Pf-apPOL concentration is based on a calculated absorptivity of ε280 = 56750 M^−1 cm^−1. Reactions were carried out at 25 °C, using Corning 3575 […] (well-volume, 20 µL). Assays testing for compound inhibition composed of reaction buffer (pH 7.9 in 50 mM potassium acetate, 20 mM Tris-acetate and 10 mM magnesium acetate), Pf-apPOL (20 nM), DNA substrate (20 nM), dNTPs (6 µM), and compound (10 µM in DMSO). The DNA and nucleotide substrates (dNTPs) were at concentrations of 20 nM and 6 µM, respectively, in the assay. Pf-apPOL was incubated in the reaction buffer with dNTPs and the compound of interest (10 µM, in the assay) at 25 °C for 10 min. The DNA substrate was then added and the reaction was allowed to proceed for 90 min at 25 °C.
Each assay plate contained 16 negative controls (no Pf-apPOL, DMSO present) and 16 positive controls (Pf-apPOL present, no DMSO). The fluorescence of each well was determined using a BioTek Synergy Neo fluorescence plate reader using excitation and emission wavelengths of 555 and 570 nm, respectively.
In the above, Min is the average of fluorescence emission of the negative controls (substrate only), Max the average fluorescence emission from the positive controls (enzyme + substrate), and Test the emission from the assays in the presence of compounds (enzyme + compound + substrates). […] […] The IC50 of each compound was determined using Equation (2): (2) IC50= Vmax/(1+ (I/IC50)^n)
In the above, n measures cooperativity, with n > 1 indicating synergistic binding of more than a single molecule of the compound.
To identify apPOL inhibitors we utilised our previously developed high-throughput DNA polymerase assay. The HT assay is based on a molecular beacon DNA template that forms a stem-loop with a Cy3 dye and the Black Hole Quencher on the 3′ and 5′ ends of the DNA, respectively. DNA polymerase activity extends an annealed primer through the stem region, displacing the fluorophore from the quencher, thereby increasing its fluorescence (Figure 1(A)). The assay accurately recapitulates the kinetic behaviour of apPOL, as measured through more conventional low-throughput gel-based assays. The Z′ factor for the assay described here was 0.9 across all plates (data not shown).
Figure 1. High-throughput screening. (A) The fluorescent-based DNA polymerase assay used to screen the compound libraries. The DNA template strand is a hairpin loop with a primer annealed to the loop. The 3’ end of the primer is 11 bases away from the 6 bp duplex. Strand displacement activity of the DNA polymerase separates the Cy3 dye from the Black hole quencher leading to an increase in fluorescent signal. (B) The high-throughput assay workflow. The DNA polymerase is incubated with […] compound for 10 min prior to addition of the hairpin substrate. The reaction is quenched at 3 different time points and the fluorescent signal is measured and % inhibition is determined using the provided equation.

Chain of P. falciparum apicoplast DNA polymerase (Pf-apPOL) (Q8ILY1 entry or part of it): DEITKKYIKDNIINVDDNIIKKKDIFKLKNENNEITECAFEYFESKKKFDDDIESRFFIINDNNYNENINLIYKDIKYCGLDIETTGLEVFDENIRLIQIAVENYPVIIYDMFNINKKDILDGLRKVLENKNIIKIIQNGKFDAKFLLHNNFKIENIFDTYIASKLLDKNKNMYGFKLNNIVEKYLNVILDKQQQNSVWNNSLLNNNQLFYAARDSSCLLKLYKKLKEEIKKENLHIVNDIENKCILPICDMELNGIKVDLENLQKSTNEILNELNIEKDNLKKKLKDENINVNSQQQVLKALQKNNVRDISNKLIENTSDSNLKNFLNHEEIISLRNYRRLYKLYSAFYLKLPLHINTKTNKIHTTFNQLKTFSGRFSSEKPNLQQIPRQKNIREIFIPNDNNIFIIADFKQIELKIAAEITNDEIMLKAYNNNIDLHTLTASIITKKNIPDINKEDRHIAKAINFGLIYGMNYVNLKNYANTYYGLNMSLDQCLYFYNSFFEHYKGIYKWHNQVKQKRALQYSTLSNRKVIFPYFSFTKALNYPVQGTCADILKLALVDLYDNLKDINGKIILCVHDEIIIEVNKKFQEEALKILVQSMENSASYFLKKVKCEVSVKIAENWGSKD

Work on `Cc1nc2c(oc3nc(-c4ccoc4)c4c(c32)CC(C)(C)OC4)c(-c2ccccc2)c1C(=O)O` [Molecule 93] yielded an IC50 (supplemental file 2, sheet IC50 nontoxic compounds; Pf-apPOL) of 6.29 µM.
For `O=C1NN(c2ccc(Cl)c(Cl)c2)C(=O)/C1=C/c1ccc(-c2ccc3c(c2)C(=O)OC3)o1` [Molecule 90, O=C1NN(C(=O)/C/1=C/c1ccc(o1)c1ccc2c(c1)C(=O)OC2)c1ccc(c(c1)Cl)Cl], the “DNA Pol” value ('DNA Pol' of the 186 hits list (screen value); 90 min, 10 µM) was 51, the “% inhibition Apo pol 10'” value (DRC-1; 10'; conc 2.5) was 36.4105% and the “% inhibition Apo pol 10'” value (DRC-1; 10'; conc 5) was 68.8597%. The “% inhibition Apo pol 10'” value (DRC-1; 10'; conc 10) was 88.9603%, the “% inhibition Apo pol 10'” value (DRC-1; 10'; conc 20) was 93.857% and the “% inhibition Apo pol 10'” value (DRC-1; 10'; conc 40) was 90.5867%. For the same compound, the “% inhibition Apo pol 10'” value (DRC-1; 10'; conc 80) was 96.7456%, the “% inhibition Apol 90'” value (DRC-1; 90'; conc 2.5) was 24.0232% and the “% inhibition Apol 90'” value (DRC-1; 90'; conc 5) was 57.3373%. The “% inhibition Apol 90'” value (DRC-1; 90'; conc 10) was 84.2476%, the “% inhibition Apol 90'” value (DRC-1; 90'; conc 20) was 92.6423% and the “% inhibition Apol 90'” value (DRC-1; 90'; conc 40) was 85.5188%. The “% inhibition Apol 90'” value (DRC-1; 90'; conc 80) was 95.1265%, the “% inhibition apPOL 180'” value (DRC-1; 180'; conc 2.5) was 13.8146% and the “% inhibition apPOL 180'” value (DRC-1; 180'; conc 5) was 43.9311%. The “% inhibition apPOL 180'” value (DRC-1; 180'; conc 10) was 78.9656%, the “% inhibition apPOL 180'” value (DRC-1; 180'; conc 20) was 91.6394% and the “% inhibition apPOL 180'” value (DRC-1; 180'; conc 40) was 79.8129%. The “% inhibition apPOL 180'” value (DRC-1; 180'; conc 80) was 94.9011%, the “% inhibition Apo pol 5'” value (DRC-2; 5'; conc 2.5) was 31% and the “% inhibition Apo pol 5'” value (DRC-2; 5'; conc 5) was 10%. The “% inhibition Apo pol 5'” value (DRC-2; 5'; conc 10) was 34%, the “% inhibition Apo pol 5'” value (DRC-2; 5'; conc 20) was 38% and the “% inhibition Apo pol 5'” value (DRC-2; 5'; conc 40) was 61%. The “% inhibition Apo pol 5'” value (DRC-2; 5'; conc 80) was 63%, the “% inhibition Apo pol 5'” value (DRC-2; 5'; concentration 5) was 10% and the “% inhibition Apo pol 5'” value (DRC-2; 5'; concentration 10) was 34%. For the same compound, the “% inhibition Apo pol 5'” value (DRC-2; 5'; concentration 80) was 63%, the “% inhibition Apol 40'” value (DRC-2; 40'; conc 2.5) was 33% and the “% inhibition Apol 40'” value (DRC-2; 40'; conc 5) was 10%. The “% inhibition Apol 40'” value (DRC-2; 40'; conc 10) was 37%, the “% inhibition Apol 40'” value (DRC-2; 40'; conc 20) was 42% and the “% inhibition Apol 40'” value (DRC-2; 40'; conc 40) was 68%. The “% inhibition Apol 40'” value (DRC-2; 40'; conc 80) was 79%, the “% inhibition Apol 40'” value (DRC-2; 40'; concentration 5) was 10% and the “% inhibition ApPOL 90'” value (DRC-2; 90'; conc 2.5) was 30%. For the same compound, the “% inhibition ApPOL 90'” value (DRC-2; 90'; conc 5) was 9%, the “% inhibition ApPOL 90'” value (DRC-2; 90'; conc 10) was 35% and the “% inhibition ApPOL 90'” value (DRC-2; 90'; conc 20) was 40%. The “% inhibition ApPOL 90'” value (DRC-2; 90'; conc 40) was 67%, the “% inhibition ApPOL 90'” value (DRC-2; 90'; conc 80) was 82% and the “% inhibition apPOL 180'” value (DRC-2; 180'; conc 2.5) was 24%. For the same compound, the “% inhibition apPOL 180'” value (DRC-2; 180'; conc 5) was 6%, the “% inhibition apPOL 180'” value (DRC-2; 180'; conc 10) was 29% and the “% inhibition apPOL 180'” value (DRC-2; 180'; conc 20) was 34%. For the same compound, the “% inhibition apPOL 180'” value (DRC-2; 180'; conc 40) was 63%, the “% inhibition apPOL 180'” value (DRC-2; 180'; conc 80) was 83% and the “% inhibition apPOL 180'” value (DRC-2; 180'; concentration 20) was 34%. The “% inhibition apPOL 180'” value (DRC-2; 180'; concentration 40) was 63% and the “DNA Pol” value (primary screen value, "DNA Pol"; 90 min, 10 µM) was 51.
In the case of `O=[N+]([O-])c1cc2c(cc1CN1CCN(c3cccc(Cl)c3)CC1)OCO2` [KU0005610], the “DNA Pol” value ('DNA Pol'; screening value, unit not given; 90 min, 10 µM) is reported as 40, the “% inhibition Apo pol 10'” value (DRC-1; 10'; concentration 2.5) is reported as 13.4536% and the “% inhibition Apo pol 10'” value (DRC-1; 10'; concentration 5) is reported as 19.449%. The “% inhibition Apo pol 10'” value (DRC-1; 10'; concentration 10) was 35.0383%, the “% inhibition Apo pol 10'” value (DRC-1; 10'; concentration 20) was 58.0522% and the “% inhibition Apo pol 10'” value (DRC-1; 10'; concentration 40) was 81.6045%. The “% inhibition Apo pol 10'” value (DRC-1; 10'; concentration 80) was 82.8557%, the “% inhibition Apol 90'” value (DRC-1; 90'; concentration 2.5) was 0.2927% and the “% inhibition Apol 90'” value (DRC-1; 90'; concentration 5) was 2.869%. For the same compound, the “% inhibition Apol 90'” value (DRC-1; 90'; concentration 10) was 13.5382%, the “% inhibition Apol 90'” value (DRC-1; 90'; concentration 20) was 40.3549% and the “% inhibition Apol 90'” value (DRC-1; 90'; concentration 40) was 64.8091%. The “% inhibition Apol 90'” value (DRC-1; 90'; concentration 80) was 60.8313%, the “% inhibition apPOL 180'” value (DRC-1; 180'; concentration 2.5) was -5.629% and the “% inhibition apPOL 180'” value (DRC-1; 180'; concentration 5) was -4.543%. For the same compound, the “% inhibition apPOL 180'” value (DRC-1; 180'; concentration 10) was 2.609%, the “% inhibition apPOL 180'” value (DRC-1; 180'; concentration 20) was 32.6998% and the “% inhibition apPOL 180'” value (DRC-1; 180'; concentration 40) was 54.6533%. The “% inhibition apPOL 180'” value (DRC-1; 180'; concentration 80) was 41.754%, the “% inhibition Apo pol 5'” value (DRC-2, 5', concentration 2.5) was 6% and the “% inhibition Apo pol 5'” value (DRC-2, 5', concentration 5) was 11%. For the same compound, the “% inhibition Apo pol 5'” value (DRC-2, 5', concentration 10) was 25%, the “% inhibition Apo pol 5'” value (DRC-2, 5', concentration 20) was 34% and the “% inhibition Apo pol 5'” value (DRC-2, 5', concentration 40) was 45%. For the same compound, the “% inhibition Apo pol 5'” value (DRC-2, 5', concentration 80) was 49%, the “% inhibition Apol 40'” value (DRC-2, 40', concentration 2.5) was 2.55% and the “% inhibition Apol 40'” value (DRC-2, 40', concentration 5) was 6.48%. For the same compound, the “% inhibition Apol 40'” value (DRC-2, 40', concentration 10) was 18%, the “% inhibition Apol 40'” value (DRC-2, 40', concentration 20) was 28% and the “% inhibition Apol 40'” value (DRC-2, 40', concentration 40) was 49%. The “% inhibition Apol 40'” value (DRC-2, 40', concentration 80) was 61%, the “% inhibition ApPOL 90'” value (DRC-2, 90', concentration 2.5) was -0.242% and the “% inhibition ApPOL 90'” value (DRC-2, 90', concentration 5) was 1.42%. For the same compound, the “% inhibition ApPOL 90'” value (DRC-2, 90', concentration 10) was 11%, the “% inhibition ApPOL 90'” value (DRC-2, 90', concentration 20) was 20% and the “% inhibition ApPOL 90'” value (DRC-2, 90', concentration 40) was 45%. For the same compound, the “% inhibition ApPOL 90'” value (DRC-2, 90', concentration 80) was 61%, the “% inhibition apPOL 180'” value (DRC-2, 180', concentration 2.5) was -7.6% and the “% inhibition apPOL 180'” value (DRC-2, 180', concentration 5) was -5.3%. For the same compound, the “% inhibition apPOL 180'” value (DRC-2, 180', concentration 10) was 2.12%, the “% inhibition apPOL 180'” value (DRC-2, 180', concentration 20) was 7% and the “% inhibition apPOL 180'” value (DRC-2, 180', concentration 40) was 32%. For the same compound, the “% inhibition apPOL 180'” value (DRC-2, 180', concentration 80) was 53%, the “% inhibition Apo pol 5'” value (conc 5 (unit not given); 5'; DRC-2) was 11% and the “% inhibition ApPOL 90'” value (conc 10 (unit not given); 90'; DRC-2) was 11%. For the same compound, the “% inhibition Apo pol 5'” value (conc 40 (unit not given); 5'; DRC-2) was 45%, the “% inhibition Apol 40'” value (conc 40 (unit not given); 40'; DRC-2) was 49% and the “% inhibition ApPOL 90'” value (conc 40 (unit not given); 90'; DRC-2) was 45%. The “% inhibition Apo pol 5'” value (conc 80 (unit not given); 5'; DRC-2) was 49%, the “% inhibition Apol 40'” value (conc 80 (unit not given); 40'; DRC-2) was 61% and the “% inhibition ApPOL 90'” value (conc 80 (unit not given); 90'; DRC-2) was 61%. For the same compound, the “DNA Pol” value (primary screen hit value, DNA Pol (186 hits); 90 min, 10 µM) was 40.
